Target: T1, lipoxidase (EC1.13.1.13) (Glycine max, UniProt P08170)
T1 sequence (P08170 1-839): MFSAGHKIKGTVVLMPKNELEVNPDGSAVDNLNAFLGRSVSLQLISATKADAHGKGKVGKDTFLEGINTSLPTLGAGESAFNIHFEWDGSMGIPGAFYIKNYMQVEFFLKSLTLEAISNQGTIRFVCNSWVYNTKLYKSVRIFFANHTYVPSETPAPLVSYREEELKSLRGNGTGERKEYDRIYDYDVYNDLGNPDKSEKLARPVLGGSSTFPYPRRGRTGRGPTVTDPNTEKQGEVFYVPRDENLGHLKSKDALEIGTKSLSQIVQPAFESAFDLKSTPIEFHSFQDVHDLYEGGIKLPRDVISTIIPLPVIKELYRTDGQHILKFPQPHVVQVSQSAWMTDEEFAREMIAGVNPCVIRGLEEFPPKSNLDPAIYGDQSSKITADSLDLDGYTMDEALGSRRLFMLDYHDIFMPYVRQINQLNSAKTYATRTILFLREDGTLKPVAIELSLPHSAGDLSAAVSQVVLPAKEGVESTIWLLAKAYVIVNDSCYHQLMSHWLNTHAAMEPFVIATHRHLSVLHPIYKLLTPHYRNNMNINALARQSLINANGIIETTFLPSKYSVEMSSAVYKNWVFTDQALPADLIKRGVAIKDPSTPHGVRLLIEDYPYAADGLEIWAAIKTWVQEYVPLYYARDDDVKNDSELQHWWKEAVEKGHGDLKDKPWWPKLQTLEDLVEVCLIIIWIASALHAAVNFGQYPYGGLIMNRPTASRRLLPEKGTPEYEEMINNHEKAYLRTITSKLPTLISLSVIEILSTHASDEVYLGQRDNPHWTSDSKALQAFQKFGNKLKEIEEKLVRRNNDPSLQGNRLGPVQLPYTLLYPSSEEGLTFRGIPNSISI
Assay: Lipoxidase test: inhibition of the oxidation of linoleic acid by lipoxidase
Format: biochemical
Settings: test substrate made with 0.5% by weight solution of material in ethanol; borate buffer pH 9.0; OD 234 nm

In the case of Dimyrcetol, the “LIC (lipoxidase-inhibiting capacity, % inhibition)” value is reported as 16%.

From US4288341A, “Detergent product containing deodorant compositions” (priority 1978, dated 1981)
